According to patent US10344026B2, “Compositions and methods of targeting mutant K-ras” (NANTBIO, INC., priority 2017, dated 2019):

How the values were obtained:
Format in all cases: cell-based
[1] = system: phospho-Akt in Panc10.05 (G12D); test: In-Cell Western phospho-Akt, Panc10.05; details: Homo sapiens, Panc1005, 1 h; Panc10.05, one hour treatment; read-out: In-Cell Western Panc10.05 (G12D) Akt (P)
How it was run: (§1)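 EC50 values come from immunofluorescence quantitation of phosphorylated ERK or Akt in fixed cells exposed to compound for one hour at 0.5% DMSO. Maximal inhibition is defined by 1 uM BEZ235 for Akt and 1 uM MEK Inhibitor II for ERK.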

[2] = system: phospho-ERK in A375 (Wild-type); test: In-Cell Western phospho-ERK, A375; details: Homo sapiens, A-375, 1 h; A375, one hour treatment; read-out: In-Cell Western A375 (Wild-type) Erk (P)
How it was run: as §1

[3] = system: phospho-Akt in Panc1 (G12D); test: In-Cell Western phospho-Akt, Panc1; details: Homo sapiens, PANC-1, 1 h; Panc1, one hour treatment; read-out: In-Cell Western Panc1 (G12D) Akt (P)
How it was run: as §1

[4] = system: Panc1-G12D; test: Viability assay (CellTiterBlue, 72 hr) Panc1; details: Homo sapiens, PANC-1, GI50, CellTiterBlue, Panc1 K-Ras G12D, read-out: 72 hr Cell Viability Panc1 (G12D)
How it was run: (§2)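 GI50 calculation uses a window set by DMSO-treated wells (100% viability) and 100 uM tamoxifen (0%). Cells (1000/well) sit 18 hr at 37 °C, receive compound for 72 hr in 0.5% DMSO, then get CellTiterBlue for 3 hr before reading at Ex550/Em590.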

[5] = system: phospho-ERK in Panc10.05 (G12D); test: In-Cell Western phospho-ERK, Panc10.05; details: Homo sapiens, Panc1005, 1 h; Panc10.05, one hour treatment; read-out: In-Cell Western Panc10.05 (G12D) Erk (P)
How it was run: as §1

[6] = system: U87-MG (K-Ras wild type cell line); test: Viability assay (CellTiterBlue, 72 hr) U87-MG; details: Homo sapiens, U-87 MG, GI50, CellTiterBlue, U87-MG K-Ras wild-type
How it was run: as §2

[7] = system: HCC827 (K-Ras wild type cell line); test: Viability assay (CellTiterBlue, 72 hr) HCC827; details: Homo sapiens, GI50, CellTiterBlue, HCC827 K-Ras wild-type
How it was run: as §2

[8] = system: Ishikawa (K-Ras wild type cell line); test: Viability assay (CellTiterBlue, 72 hr) Ishikawa; details: Homo sapiens, GI50, CellTiterBlue, Ishikawa K-Ras wild-type
How it was run: as §2

[9] = system: HCT116-G31D; test: Viability assay (CellTiterBlue, 72 hr) HCT116; details: Homo sapiens, HCT-116, GI50, CellTiterBlue, HCT116 K-Ras G13D, read-out: 72 hr Cell Viability HCT116 (G13D)
How it was run: as §2

[10] = system: phospho-Akt in HCC827 (Wild-type); test: In-Cell Western phospho-Akt, HCC827; details: Homo sapiens, 1 h; HCC827, one hour treatment; read-out: In-Cell Western HCC827 (Wild-type) Akt (P)
Procedure: In-cell phosphorylation assays for Erk and Akt were performed on several of the compounds and exemplary results are shown in Table 3 below using HCC827 and A375 cell lines for wild type K-Ras and Panc1 and Panc10.05 cell lines for G12D K-Ras mutants. Results are expressed in μM and corresponding structures are shown in FIGS. 2A-2G and Examples 1-152, above.
Cells are seeded in complete medium into black sided, clear-bottom 384-well microplates at 3000 cells/[…]/well. Plates are returned to 37° C. CO2 incubator for 18 hr. Drug is made as 200× in DMSO and diluted into medium to 10×. To each well is added 4 ul 10× test article or controls, and plates are returned to the incubator. Final assay DMSO concentration is 0.5%. After one hour, cells are fixed in formaldehyde, rinsed & permeabilized with triton X-100, and blocked with BSA/Goat serum blocking solution. Primary phospho-Akt and phospho-ERK antibodies are added and plates are incubated overnight at 4° C. Plates are rinsed with Tween-20 wash buffer and secondary antibody (Goat anti-rabbit, Thermofisher) is added. After 2 hours, plates are rinsed in Tween-20 wash buffer, and then PBS. Plates are imaged on the Celigo (Nexcelom) and cellular fluorescence is quantitated. Full inhibition of phospho-Akt is achieved with 1 uM BEZ235 (Sellekchem), while full inhibition of phospho-ERK is achieved with 1 uM MEK Inhibitor II Calbiochem). EC50 values are calculated using Graphpad Prism.

[11] = system: phospho-ERK in Panc1 (G12D); test: In-Cell Western phospho-ERK, Panc1; details: Homo sapiens, PANC-1, 1 h; Panc1, one hour treatment; read-out: In-Cell Western Panc1 (G12D) Erk (P)
How it was run: as §1

[12] = molecular target: T1, wild type K-Ras (Homo sapiens, UniProt P01116); test: G-LISA Ras activation, 293H cells transfected with Ras wild-type, EGF stimulated; details: compound 1 hour, then 100 ng/ml EGF 2 minutes
T1 construct: expressed in transfected cells; host or cells: 293H cells
How it was run: (§3)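 293H cells were transfected with wild-type or mutant Ras plasmid (Lipofectamine 3000), then exposed next day to compounds at 3.125-25 μM for 1 hour. Wild-type transfectants received 100 ng/ml EGF for 2 minutes before ice-cold PBS wash, lysis on ice and G-LISA readout of active Ras.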

[13] = system: A375 (K-Ras wild type cell line); test: Viability assay (CellTiterBlue, 72 hr) A375; details: Homo sapiens, A-375, GI50, CellTiterBlue
How it was run: as §2

[14] = system: phospho-ERK in HCC827 (Wild-type); test: In-Cell Western phospho-ERK, HCC827; details: Homo sapiens, 1 h; HCC827, one hour treatment; read-out: In-Cell Western HCC827 (Wild-type) Erk (P)
How it was run: as §1

[15] = molecular target: T2, K-Ras G12D (Homo sapiens, UniProt P01116, G12D); test: G-LISA Ras activation, 293H cells transfected with G12D mutant; details: compound 1 hour
T2 construct: expressed in transfected cells; host or cells: 293H cells
How it was run: as §3

[16] = system: Panc10.05-G12D; test: Viability assay (CellTiterBlue, 72 hr) Panc10.05; details: Homo sapiens, Panc1005, GI50, CellTiterBlue, Panc10.05 K-Ras G12D, read-out: 72 hr Cell Viability Panc10.05 (G12D)
How it was run: as §2

[17] = system: phospho-Akt in A375 (Wild-type); test: In-Cell Western phospho-Akt, A375; details: Homo sapiens, A-375, 1 h; A375, one hour treatment; read-out: In-Cell Western A375 (Wild-type) Akt (P)
How it was run: as §1

T2 sequence (P01116 whole entry G12D): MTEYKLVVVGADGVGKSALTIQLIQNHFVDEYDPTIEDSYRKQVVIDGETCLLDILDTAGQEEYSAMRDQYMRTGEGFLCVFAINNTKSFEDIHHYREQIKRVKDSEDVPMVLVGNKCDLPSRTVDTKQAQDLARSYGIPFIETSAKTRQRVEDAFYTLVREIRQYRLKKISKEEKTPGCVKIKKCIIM
T1 sequence (P01116 whole entry): as the sequence (P01116 whole entry G12D) above, with D12G counted along it

Cc1nn(C(C)C)c(C)c1C(=O)Nc1nc(-c2ccc3c(c2)CCC(=O)N3Cc2cccnc2)cs1 [Compound 117, 1-isopropyl-3,5-dimethyl-N-(4-(2-oxo-1-(pyridin-3-ylmethyl)-1,2,3,4-tetrahydroquinolin-6-yl)thiazol-2-yl)-1H-pyrazole-4-carboxamide]
EC50 [1]: 3 µM | EC50 [2]: 15 µM | EC50 [3]: 23 µM | IC50 [4]: 3 µM | EC50 [5]: 0.914 µM | IC50 [6]: > 25 µM | IC50 [7]: 4 µM | IC50 [8]: 5 µM | IC50 [9]: > 25 µM | EC50 [10]: > 25 µM | EC50 [11]: 4 µM | IC50 [12]: 6.7 µM | IC50 [13]: 14 µM | EC50 [14]: 4 µM | IC50 [15]: 2.6 µM | IC50 [16]: 1.4 µM | EC50 [17]: > 25 µM

COCCN1C(=O)CCc2cc(-c3csc(NC(=O)c4c(C)nn(C(C)C)c4C)n3)ccc21 [Compound 118, 1-isopropyl-N-(4-(1-(2-methoxyethyl)-2-oxo-1,2,3,4-tetrahydroquinolin-6-yl)thiazol-2-yl)-3,5-dimethyl-1H-pyrazole-4-carboxamide]
EC50 [1]: 2 µM | EC50 [2]: 10 µM | EC50 [3]: 26 µM | IC50 [4]: 2 µM | EC50 [5]: 0.969 µM | IC50 [6]: 8 µM | IC50 [7]: 2 µM | IC50 [8]: 4 µM | IC50 [9]: 18 µM | EC50 [10]: > 25 µM | EC50 [11]: 6 µM | IC50 [13]: 9 µM | EC50 [14]: 1.2 µM | IC50 [15]: 4.3 µM | IC50 [16]: 0.854 µM | EC50 [17]: 23 µM

CCn1cc(C(=O)Nc2nc(-c3ccc4c(c3)CCC(=O)N4Cc3cccnc3)cs2)c(C)n1 [Compound 115, 1-ethyl-3-methyl-N-(4-(2-oxo-1-(pyridin-3-ylmethyl)-1,2,3,4-tetrahydroquinolin-6-yl)thiazol-2-yl)-1H-pyrazole-4-carboxamide]
EC50 [1]: 12 µM | EC50 [2]: 9 µM | EC50 [3]: 18 µM | IC50 [4]: 9 µM | EC50 [5]: 2 µM | IC50 [6]: 17 µM | IC50 [7]: 11 µM | IC50 [8]: 9 µM | IC50 [9]: 10 µM | EC50 [10]: > 25 µM | EC50 [11]: 2 µM | IC50 [12]: 6.3 µM | IC50 [13]: 6 µM | EC50 [14]: 6 µM | IC50 [15]: 3.4 µM | IC50 [16]: 4 µM | EC50 [17]: > 25 µM

CCc1cc(C(=O)Nc2nc(-c3ccc4c(c3)CCC(=O)N4)cs2)n(C)n1 [Compound 24, 3-ethyl-1-methyl-N-(4-(2-oxo-1,2,3,4-tetrahydroquinolin-6-yl)thiazol-2-yl)-1H-pyrazole-5-carboxamide]
EC50 [1]: 13 µM | EC50 [2]: > 25 µM | EC50 [3]: > 25 µM | IC50 [4]: 0.672 µM | EC50 [5]: > 25 µM | IC50 [6]: > 25 µM | IC50 [7]: > 25 µM | IC50 [8]: > 25 µM | IC50 [9]: > 25 µM | EC50 [10]: > 25 µM | EC50 [11]: > 25 µM | IC50 [12]: 7.6 µM | IC50 [13]: > 25 µM | EC50 [14]: > 25 µM | IC50 [15]: 9.9 µM | IC50 [16]: 2.76 µM

Cc1nn(-c2ccccc2)c(C)c1C(=O)Nc1nc(-c2ccc3c(c2)CCC(=O)N3)cs1 [Compound 53, 3,5-dimethyl-N-(4-(2-oxo-1,2,3,4-tetrahydroquinolin-6-yl)thiazol-2-yl)-1-phenyl-1H-pyrazole-4-carboxamide]
EC50 [1]: 15 µM | EC50 [2]: 6 µM | EC50 [3]: > 25 µM | IC50 [4]: 12 µM | EC50 [5]: 3 µM | IC50 [6]: 15 µM | IC50 [7]: 10 µM | IC50 [8]: 13 µM | IC50 [9]: 11 µM | EC50 [10]: > 25 µM | EC50 [11]: 16 µM | IC50 [12]: 7.7 µM | IC50 [13]: 3 µM | EC50 [14]: 14 µM | IC50 [15]: 6.7 µM | IC50 [16]: 10 µM | EC50 [17]: 10 µM

Cc1nc(C)c(C(=O)Nc2nc(-c3ccc4c(c3)CCC(=O)N4Cc3nnn[nH]3)cs2)o1 [Compound 109, N-(4-(1-((1H-tetrazol-5-yl)methyl)-2-oxo-1,2,3,4-tetrahydroquinolin-6-yl)thiazol-2-yl)-2,4-dimethyloxazole-5-carboxamide]
EC50 [1]: > 25 µM | EC50 [2]: > 25 µM | EC50 [3]: > 25 µM | IC50 [4]: > 25 µM | EC50 [5]: > 25 µM | IC50 [6]: > 25 µM | IC50 [7]: > 25 µM | IC50 [8]: > 25 µM | IC50 [9]: > 25 µM | EC50 [10]: > 25 µM | EC50 [11]: > 25 µM | IC50 [13]: > 25 µM | EC50 [14]: > 25 µM | IC50 [16]: > 25 µM | EC50 [17]: > 25 µM

Cc1nc(C)c(C(=O)Nc2nc(-c3ccc4c(c3)CCC(=O)N4CC3CC3)cs2)o1 [Compound 68, N-(4-(1-(cyclopropylmethyl)-2-oxo-1,2,3,4-tetrahydroquinolin-6-yl)thiazol-2-yl)-2,4-dimethyloxazole-5-carboxamide]
EC50 [1]: 23 µM | EC50 [3]: 4 µM | IC50 [4]: 8 µM | EC50 [5]: 7 µM | IC50 [7]: 5 µM | IC50 [8]: 3 µM | IC50 [9]: 5 µM | EC50 [10]: 13 µM | EC50 [11]: 5 µM | IC50 [12]: 16.7 µM | EC50 [14]: 6 µM | IC50 [15]: 10.3 µM | IC50 [16]: 3 µM

Cc1nc(C)c(C(=O)Nc2nc(-c3ccc4c(c3)CCC(=O)N4CCn3cncn3)cs2)o1 [Compound 108, N-(4-(1-(2-(1H-1,2,4-triazol-1-yl)ethyl)-2-oxo-1,2,3,4-tetrahydroquinolin-6-yl)thiazol-2-yl)-2,4-dimethyloxazole-5-carboxamide]
EC50 [1]: > 25 µM | EC50 [2]: > 25 µM | EC50 [3]: > 25 µM | IC50 [4]: > 25 µM | EC50 [5]: 21 µM | IC50 [6]: > 25 µM | IC50 [7]: > 25 µM | IC50 [8]: > 25 µM | IC50 [9]: > 25 µM | EC50 [10]: > 25 µM | EC50 [11]: > 25 µM | IC50 [13]: > 25 µM | EC50 [14]: > 25 µM | IC50 [15]: > 25 µM | IC50 [16]: > 25 µM | EC50 [17]: > 25 µM
